In patent US20090156668A1, “Ginkgolide Compounds, Compositions, And Extracts, And Uses Thereof” (priority 2004, published 2009):
Read-outs that look alike come from different tables or passages of the source.

Tests used:
[1] = test system: beta-amyloid (1-42)-induced inhibition of long-term potentiation in the CA1 region of hippocampal slices; format: cell-based, mice
[2] = test system: rat hippocampal neuron cultures; experiment: neuroprotection assay: beta amyloid-induced neuronal cell death, viable cells by cell nuclei counting; settings: for number of viable cells (control = 100%): ginkgolide 1 μM + oligomeric amyloid beta, mean±SEM of 3 experiments
[3] = target: platelet activating factor (Homo sapiens, UniProt P25105); settings: analogs obtained as racemates, cited from earlier work
Sequence of platelet activating factor (P25105 whole entry): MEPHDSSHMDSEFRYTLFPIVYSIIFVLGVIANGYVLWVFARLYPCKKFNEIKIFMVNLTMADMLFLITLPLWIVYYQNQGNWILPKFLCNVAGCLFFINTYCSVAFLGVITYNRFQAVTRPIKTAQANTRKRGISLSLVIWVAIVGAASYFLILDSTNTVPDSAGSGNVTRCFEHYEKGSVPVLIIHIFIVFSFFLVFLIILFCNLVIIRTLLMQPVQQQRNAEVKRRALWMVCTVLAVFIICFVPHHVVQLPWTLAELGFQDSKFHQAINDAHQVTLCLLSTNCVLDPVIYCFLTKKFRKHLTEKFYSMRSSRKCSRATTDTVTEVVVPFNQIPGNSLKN

[4] = read-out: anti-PAF IC50; analogs obtained as racemates; cited from earlier work

Molecule | rescue of LTP (L-LTP) impairment in slices treated with Aβ [1] | number of viable cells (control = 100%) ([2]; 24 h) [%] | other results
CC(C)(C)[C@]1(O)CC2OC(=O)CC23C(=O)OC2OC(=O)[C@H](O)C231 (some centres unmarked) [BB, bilobalide] | does not rescue L-LTP impairment |  | 
C[C@@H]1C(=O)O[C@H]2CC34C5OC(=O)C3(OC3OC(=O)[C@H](O)C34[C@H](C(C)(C)C)[C@H]5O)[C@]21O (some centres unmarked) [Ginkgolide J] | rescued the LTP to the same values recorded in control untreated slices | 70.7±1.4 | consistently able to prevent amyloid beta-induced cell death [2]: consistently able to prevent cell death; more cells than the other treatments [2]: approximately 40%; prevention of amyloid beta toxicity [2]: appeared to completely prevent amyloid beta toxicity
Ginkgolide C [GC] | does not rescue L-LTP impairment |  | 
CC1C(=O)OC2CC34C5CC(C(C)(C)C)C36C(=O)C(=O)OC6OC4(C(=O)O5)C21O (centres unmarked) [10-keto analog] |  |  | IC50 ([3]; read-out: anti-PAF IC50): 3.9 µM
Ginkgolide B [GB] | does not rescue L-LTP impairment |  | IC50 ([3]; read-out: anti-PAF activity IC50): 0.6 µM
C[C@@H]1C(=O)O[C@H]2CC34C5C[C@@H](C(C)(C)C)C36C(OC(=O)[C@@H]6O)OC4(C(=O)O5)[C@]21O (some centres unmarked) [Ginkgolide A] | rescued the LTP to the same values recorded in control untreated slices | 50.5±5.7 | IC50 [4]: 1.9 µM; consistently able to prevent amyloid beta-induced cell death ([2]; ginkgolide 1 μM, 24 h): not
